The values that follow come from ChEMBL document CHEMBL1201862, “PubChem BioAssay data set” (2004).

Activity calls are given as the source filed them. A value given as a limit tells only on which side of the number the result lay.

A short description of test [1]: P. falciparum Dd2 growth inhibitors, dose response, SYBR Green, dry powder samples (AID 1159566).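 Also: potency for growth inhibition with lower SYBR green DNA signal.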 Type of test: functional, cell-based.
The nature of test [2]: P. falciparum 3D7-ScDHODH growth inhibitors, dose response, SYBR Green, dry powder samples (AID 1159570).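 Also: parasite growth measured after 72 hours of compound exposure.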 It is filed as functional, cell-based.
Test [3] in a line: HepG2 cell cytotoxicity, dose response, cytotoxicity control, plate reader, dry powder samples (AID 1159569).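 Also: inhibitor potency with signal falling toward the positive control level.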 Type of test: functional, cell-based.
The nature of test [4]: P. falciparum ATP4 D1247Y mutant growth inhibitors, dose response, NITD609-resistant line, SYBR Green, dry powder (AID 1159571).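 Also: parasites synchronized at ring stage by sorbitol before testing.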 It is filed as functional, cell-based.
The target of test [5] is T1, Tyrosine-protein phosphatase non-receptor type 7 (Homo sapiens, UniProt P35236).
T1 sequence (P35236 whole entry): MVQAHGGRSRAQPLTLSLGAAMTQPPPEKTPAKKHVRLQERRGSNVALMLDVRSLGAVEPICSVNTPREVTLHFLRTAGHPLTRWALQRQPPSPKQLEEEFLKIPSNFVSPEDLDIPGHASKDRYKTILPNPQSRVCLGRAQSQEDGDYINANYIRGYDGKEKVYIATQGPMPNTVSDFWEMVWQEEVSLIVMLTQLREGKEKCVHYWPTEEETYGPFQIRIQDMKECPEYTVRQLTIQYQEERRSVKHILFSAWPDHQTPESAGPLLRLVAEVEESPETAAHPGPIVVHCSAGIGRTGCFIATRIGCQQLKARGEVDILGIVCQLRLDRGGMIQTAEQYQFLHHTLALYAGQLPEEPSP
Put plainly: inhibitors of human HePTP phosphatase, […], biochemical, absorbance, leukemia target (AID 521). Type of test: functional.

The nature of test [6]: P. falciparum Dd2 growth inhibitors, dose response, SYBR Green, cherry-picked samples (AID 1159567). It is filed as functional, cell-based.
The target of test [7] is T2, Calpain-2 catalytic subunit (Sus scrofa, UniProt P43367).
T2 sequence (P43367 whole entry): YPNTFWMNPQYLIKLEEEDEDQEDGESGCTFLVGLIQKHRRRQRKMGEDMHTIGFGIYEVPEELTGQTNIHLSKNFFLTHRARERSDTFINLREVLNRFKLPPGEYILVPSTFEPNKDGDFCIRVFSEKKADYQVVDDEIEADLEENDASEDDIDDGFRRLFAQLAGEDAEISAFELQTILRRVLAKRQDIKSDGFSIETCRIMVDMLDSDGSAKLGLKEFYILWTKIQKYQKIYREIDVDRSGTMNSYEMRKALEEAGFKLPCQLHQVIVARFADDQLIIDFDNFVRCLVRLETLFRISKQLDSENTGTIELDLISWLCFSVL
Put plainly: pig calpain II inhibitor potency, dose response, biochemical, fluorogenic peptide substrate (AID 1420). Type of test: functional.

Test [8] in a line: cytotoxicity in HPDE-C7 cells, cell-based, fluorescence, HTS (AID 430). It is filed as functional. The following applies: Homo sapiens.
The nature of test [9]: cytotoxicity in KRAS-transformed pancreatic duct cells, primary screen, cell-based, fluorescence, HTS (AID 431). It is filed as functional. Particulars: Homo sapiens.
A short description of test [10]: growth suppression of beta-catenin-knockout colon cells, dose response, cell-based, HCT116, human colon tumor (AID 1045).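 Also: HCT116 colon tumor cells with beta catenin knocked out; cells exposed to compound for 60 hours.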 Type of test: functional.
The nature of test [11]: growth suppression of PTEN-null colon cells, dose response, cell-based, HCT116 PTEN knockout (AID 1047).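 Also: HCT116 colon tumor cells with PTEN knocked out; cells exposed to compound for 60 hours before readout; potency for loss of cell viability measured by luminescence.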 It is filed as functional.
The target of the next test is T3, Caspase-6 (Homo sapiens, UniProt P55212).
T3 sequence (P55212 whole entry): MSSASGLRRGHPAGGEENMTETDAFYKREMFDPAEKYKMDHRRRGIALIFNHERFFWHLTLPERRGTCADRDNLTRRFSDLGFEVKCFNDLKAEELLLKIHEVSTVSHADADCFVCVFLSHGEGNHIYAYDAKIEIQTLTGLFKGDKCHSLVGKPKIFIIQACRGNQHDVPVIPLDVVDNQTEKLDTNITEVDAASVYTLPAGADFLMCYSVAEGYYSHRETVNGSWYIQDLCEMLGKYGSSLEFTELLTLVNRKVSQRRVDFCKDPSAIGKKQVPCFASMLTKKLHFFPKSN
Description: human caspase-6 inhibitors, dose response, biochemical, VEID-R110 fluorescence, cherry-pick (AID 720632).

A further test concerns the target T4, Protein RecA (Mycobacterium tuberculosis, UniProt P9WHJ3).
T4 sequence (P9WHJ3 whole entry): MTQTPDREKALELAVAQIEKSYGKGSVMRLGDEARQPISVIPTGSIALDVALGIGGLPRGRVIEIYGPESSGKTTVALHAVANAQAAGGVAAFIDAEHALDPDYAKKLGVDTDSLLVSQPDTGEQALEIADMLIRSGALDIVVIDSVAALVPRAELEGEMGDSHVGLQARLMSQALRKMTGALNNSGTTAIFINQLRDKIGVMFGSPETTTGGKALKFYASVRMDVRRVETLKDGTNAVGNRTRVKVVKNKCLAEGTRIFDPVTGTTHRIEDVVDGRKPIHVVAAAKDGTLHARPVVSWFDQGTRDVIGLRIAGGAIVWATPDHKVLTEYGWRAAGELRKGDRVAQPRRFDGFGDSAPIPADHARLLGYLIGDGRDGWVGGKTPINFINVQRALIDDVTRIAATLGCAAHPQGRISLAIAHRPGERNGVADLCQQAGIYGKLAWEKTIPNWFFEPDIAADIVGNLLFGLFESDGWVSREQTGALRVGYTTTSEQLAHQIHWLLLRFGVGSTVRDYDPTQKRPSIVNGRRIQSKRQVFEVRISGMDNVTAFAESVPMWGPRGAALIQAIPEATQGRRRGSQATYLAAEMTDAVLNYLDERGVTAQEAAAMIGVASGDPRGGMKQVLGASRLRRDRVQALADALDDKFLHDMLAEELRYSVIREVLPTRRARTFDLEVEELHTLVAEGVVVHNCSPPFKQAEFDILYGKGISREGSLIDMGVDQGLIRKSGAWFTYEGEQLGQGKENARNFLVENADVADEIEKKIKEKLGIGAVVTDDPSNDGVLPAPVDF
Description: Fluorescence Cell-Free Homogeneous Dose Retest to Identify Inhibitors of RecA-Intein Splicing Activity. [Related pubchem assays (depositor defined):AID2097, AID2223, AID489010, AID492950]. Type of test: functional.

Test [12] addresses T5, Replicative DNA helicase DnaB (Mycobacterium tuberculosis, UniProt P9WMR3).
T5 sequence (P9WMR3 whole entry): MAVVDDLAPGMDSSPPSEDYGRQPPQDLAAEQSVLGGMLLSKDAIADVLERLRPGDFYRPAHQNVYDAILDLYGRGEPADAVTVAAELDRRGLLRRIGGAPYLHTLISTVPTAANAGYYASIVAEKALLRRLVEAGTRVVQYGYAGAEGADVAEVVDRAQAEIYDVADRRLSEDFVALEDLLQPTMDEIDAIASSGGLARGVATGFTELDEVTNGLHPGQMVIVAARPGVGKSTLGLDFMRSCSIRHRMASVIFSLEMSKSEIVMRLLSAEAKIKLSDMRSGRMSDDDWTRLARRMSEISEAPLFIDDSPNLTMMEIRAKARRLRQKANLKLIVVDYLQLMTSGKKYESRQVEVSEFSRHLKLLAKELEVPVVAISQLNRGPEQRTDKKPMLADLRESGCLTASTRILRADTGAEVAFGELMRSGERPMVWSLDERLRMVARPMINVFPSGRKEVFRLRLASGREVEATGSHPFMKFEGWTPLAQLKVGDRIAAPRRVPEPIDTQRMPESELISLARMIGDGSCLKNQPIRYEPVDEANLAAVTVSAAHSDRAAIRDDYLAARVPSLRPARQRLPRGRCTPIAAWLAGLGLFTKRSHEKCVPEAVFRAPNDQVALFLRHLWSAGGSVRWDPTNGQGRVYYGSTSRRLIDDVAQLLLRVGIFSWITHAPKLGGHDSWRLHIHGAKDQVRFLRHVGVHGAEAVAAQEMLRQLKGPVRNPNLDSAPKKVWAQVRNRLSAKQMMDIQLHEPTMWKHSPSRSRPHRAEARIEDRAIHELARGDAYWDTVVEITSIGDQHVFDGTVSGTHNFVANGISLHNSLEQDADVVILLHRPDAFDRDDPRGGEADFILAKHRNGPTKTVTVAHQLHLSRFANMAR
Put plainly: DnaB intein splicing inhibitors, dose response, biochemical, cell-free fluorescence (AID 449749). Type of test: functional.

The next test has as its target T6, Leucine aminopeptidase (Plasmodium falciparum 3D7, UniProt Q8IL11).
T6 sequence (Q8IL11 whole entry): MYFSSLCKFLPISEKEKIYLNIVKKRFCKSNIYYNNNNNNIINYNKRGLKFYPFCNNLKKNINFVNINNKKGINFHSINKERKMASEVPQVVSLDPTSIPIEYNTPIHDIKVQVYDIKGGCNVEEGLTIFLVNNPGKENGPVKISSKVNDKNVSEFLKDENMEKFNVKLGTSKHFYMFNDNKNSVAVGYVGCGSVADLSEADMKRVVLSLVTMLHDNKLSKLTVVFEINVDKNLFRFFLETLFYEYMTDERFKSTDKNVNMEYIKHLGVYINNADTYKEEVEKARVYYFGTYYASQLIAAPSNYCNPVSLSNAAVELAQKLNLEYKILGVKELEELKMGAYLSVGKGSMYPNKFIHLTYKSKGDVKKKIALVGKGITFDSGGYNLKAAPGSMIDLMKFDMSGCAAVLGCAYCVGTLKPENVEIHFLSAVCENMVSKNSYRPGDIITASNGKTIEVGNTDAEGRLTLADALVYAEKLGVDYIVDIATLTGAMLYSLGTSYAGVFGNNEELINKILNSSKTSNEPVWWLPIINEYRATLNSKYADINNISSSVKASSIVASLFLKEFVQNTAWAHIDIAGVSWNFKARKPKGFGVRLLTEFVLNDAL
Description: P. falciparum M17LAP inhibitors, primary screen, biochemical, fluorogenic H-Leu-NHMec substrate, 1536-well (AID 1619). It is filed as functional.

Take `COc1ccccc1CN1CC2(C1)[C@H](c1ccccc1)[C@H](CO)N2Cc1ccccc1`: the AC50 (usually the concentration giving half of the maximal activity seen) in test [1] is 1.96 µM (active); in [2] it was 4.14 µM (active); in test [3], 23.9 µM (active); in test [4] it was 2.85 µM (active).

For the compound `O=C(Nc1ccccn1)c1cccc(S(=O)(=O)N2CCCCC2)c1`, the IC50 (commonly the point on the concentration scale where inhibition reaches its midpoint) in test [5] was > 100 µM (not active).

Take `C[C@H]1CN([C@@H](C)CO)C(=O)c2ccccc2-c2ccccc2CO[C@@H]1CN(C)C(=O)Nc1ccc(-c2ccccc2)cc1`: the AC50 in test [1] is 0.723 µM (active); in [6], 1.77 µM (active); in [2], 1.35 µM (active); in [3], > 100 µM (inactive); in test [4], 1.56 µM (active).

As for `O=C(Nc1ccc(Cl)c(Cl)c1)OCCNC(=O)c1cccc(Cl)c1`, the IC50 in test [7] was 2.99 µM (not active).

With `COC(=O)c1ccccc1NC(=O)N1CCN(c2ccc(F)cc2)CC1`, the IC50 in [7] is given as 8.67 µM (not active).

In the case of `C[C@@H]1CN([C@H](C)CO)C(=O)c2cc(C#Cc3cccc(F)c3)cnc2O[C@@H]1CN(C)C(=O)C1CCCCC1`, the AC50 in [1] is 2.16 µM (active); in [6], 2.91 µM (active); in test [2] it was 3.19 µM (active); in test [3], 30.1 µM (active); in test [4] it was 2.66 µM (active).

Take `Cc1cc(-c2nnc3n2N=C(c2ccc(-c4ccccc4)cc2)CS3)[nH]n1`: the EC50 (as a rule, the concentration at which the effect is half-maximal) was 15.2 µM (active) in test [8], 16.1 µM (active) in [9], 13.7 µM (active) in [10] and 15.9 µM (active) in test [11]. For the same compound, the IC50 in test [5] was > 100 µM (not active).

Consider `CC(C)c1ccc(NC(S)=NC2CC3C=CC2C3)cc1` (centres undefined), for which the IC50 in test [7] is on record as 42.5 µM (not active).

As for `CC1=NN(c2ccc(S(=O)(=O)O)cc2Cl)C(=O)C1`, the AC50 at Caspase-6 is 19 µM (active); in test [12] it was 4.45 µM (active). Moreover, the EC50 on Protein RecA is 9.45 µM (active).

As to `O=C(CN1C(=O)C2C3c4ccccc4C(c4ccccc43)C2C1=O)N1CCOCC1` (centres undefined), the IC50 in [5] is recorded as > 100 µM (not active).

As for `O=C(O)C1CC=CCC1C(=O)Nc1ccc(F)c(F)c1` (centres undefined), the values for the IC50 (on Leucine aminopeptidase; in test [5]) were 20.4 µM (active) and > 100 µM (not active), respectively.
